Measurements: US20060216333A1, “Methods related to the treatment of mucosal associated conditions” (priority 2003, published 2006)

How the values were obtained:
Type in all cases: in vivo, rat
TNF = assay: Serum and vaginal tissue TNF after intravaginal dosing of rats (ELISA); conditions: for TNF Tissue: vaginal tissue, per 200 mg
Procedure: (§1) In the examples below the serum and intravaginal cytokine data were obtained using the following general test method.
(§2) Rats were acclimated to collars (Lomir Biomedical, Malone, N.Y.) around the neck on two consecutive days prior to actual dosing. Rats were collared to prevent removal of the device and ingestion of the drug. Animals were then dosed intravaginally with a removable device or with […] of cream. Single dosed rats received one intravaginal dose with samples collected at various times following dosing. Blood was collected by cardiac puncture. Blood was allowed to clot briefly at room temperature and serum was separated from the clot via centrifugation. The serum was stored at −20° C. until it was analyzed for cytokine concentrations.
(§3) Following blood collection, the rats were euthanized and their vaginal tract, including the cervix, was then removed and the tissue was weighed, placed in a sealed 1.8 mL cryovial and flash frozen in liquid nitrogen. The frozen vaginal tissue sample was then suspended in 1.0 mL of RPMI medium (Celox, St. Paul, Minn.) containing 10% fetal bovine serum (Atlas, Fort Collins, Colo.), 2 mM L-glutamine, penicillin/streptomycin and 2-mercaptoethanol (RPMI complete) combined with a protease inhibitor cocktail set III (Calbiochem, San Diego, Calif.). The tissue was homogenized using a Tissue Tearor (Biospec Products, Bartlesville, Okla.) for approximately one minute. The tissue suspension was then centrifuged at 2000 rpm for 10 minutes under refrigeration to pellet the debris, and the supernatant collected and stored at −20° C. until analyzed for cytokine concentrations.
(§4) ELISA kits for rat TNF were purchased from BD PharMingen (San Diego, Calif.) and the rat MCP-1 ELISA kits were purchased from BioSource Intl. (Camarillo, Calif.).
(§5) Both kits were performed according to manufacturer's specifications. Results for both TNF and MCP-1 are expressed in pg/mL and are normalized per 200 mg of tissue. […] “Post dosing” means after treatment initiation. For example, if a device was inserted a time 0 hours and removed at 2 hours and cytokines were assayed at 4 hours, then the cytokines were assayed at 4 hours post dosing.

MCP-1 = assay: Serum and vaginal tissue MCP-1 after intravaginal dosing of rats (ELISA); conditions: for MCP-1 Tissue: vaginal tissue, per 200 mg
Procedure: as §1, §2, §3, §4, §5

rats = assay: Histologic examination of uterus, cervix, vagina, vulva and perineal skin, Example 11; conditions: 1% device removed after 2 hours
Procedure: Cotton devices were prepared as described in Example 1. The devices were saturated with either a solution containing 1% by weight of IRM 2 in 50/50 w/w isostearic acid/isopropyl myristate or with 50/50 w/w isostearic acid/isopropyl myristate (vehicle). Three groups of rats were dosed intravaginally 2 times a week for 3 weeks (Tuesday, Friday, Monday, Thursday, Monday, Thursday) with 1% IRM 2 device, vehicle device or with 1% IRM 2 cream. The devices were removed after 2 hours. The cream was left in place. Cytokines were assayed 4 hours post dosing of the final dose. Three more groups of rats were dosed intravaginally with 1% IRM 2 device, vehicle device or with 1% ERM 2 cream. The devices were removed after 2 hours. The cream was left in place. Cytokines were assayed 4 hours post dosing. […] The results are shown in the table below where each value is the mean value for 3 rats.
Groups of 3 rats were treated as described in Example 8 and necropsied 22 hours after the devices were removed. Uterus, cervix, vagina, vulva and perineal skin were collected, fixed and processed routinely for histologic examination.

[1] = 2 hr post dose, 5% in 50/50 ISA/IPM, cotton pellet device removed after 2 hours, Example 7
[2] = 4 hours post dosing, 1% in 50/50 ISA/IPM, cotton pellet device removed after 2 hours, Example 6
[3] = 4 hr post dose, 5% in 50/50 ISA/IPM, cotton pellet device removed after 2 hours, Example 7
[4] = 6 hr post dose, 5% in 50/50 ISA/IPM, cotton pellet device removed after 2 hours, Example 7
[5] = 4 hours post dosing, device 1.0% in 50/50 ISA/IPM, removed after 15 min, Example 4
[6] = 4 hours post dosing, device 1.0% in 50/50 ISA/IPM, removed after 30 min, Example 4
[7] = 4 hours post dosing, device 1.0% in 50/50 ISA/IPM, removed after 60 min, Example 4
[8] = 4 hours post dosing, device 1.0% in 50/50 ISA/IPM, removed after 120 min, Example 4
[9] = 4 hours post dosing, single dose, 1% in 50/50 ISA/IPM cotton device removed after 2 hours, Example 8
[10] = 4 hours post final dose, multiple dose, 2 times a week for 3 weeks, 1% in 50/50 ISA/IPM cotton device removed after 2 hours, Example 8
[11] = Multiple dose (2 times a week for 3 weeks)

CCOCc1nc2c(N)nc3ccccc3c2n1CCNC(=O)NC(C)C [IRM 7, N-{2-[4-amino-2-(ethoxymethyl)-1H-imidazo[4,5-c]quinolin-1-yl]ethyl}-N′-isopropylurea]
TNF Serum (TNF; [1]): 1 pg/mL | TNF Serum (TNF; [2]): 0 pg/mL | TNF Serum (TNF; [3]): 0 pg/mL | TNF Serum (TNF; [4]): 2 pg/mL | TNF Tissue (TNF; [1]): 512 pg/mL | TNF Tissue (TNF; [2]): 219 pg/mL | TNF Tissue (TNF; [3]): 460 pg/mL | TNF Tissue (TNF; [4]): 267 pg/mL | MCP-1 Serum (MCP-1; [1]): 92 pg/mL | MCP-1 Serum (MCP-1; [2]): 93 pg/mL | MCP-1 Serum (MCP-1; [3]): 112 pg/mL | MCP-1 Serum (MCP-1; [4]): 140 pg/mL | MCP-1 Tissue (MCP-1; [1]): 498 pg/mL | MCP-1 Tissue (MCP-1; [2]): 642 pg/mL | MCP-1 Tissue (MCP-1; [3]): 851 pg/mL | MCP-1 Tissue (MCP-1; [4]): 670 pg/mL

COCCc1nc2c(N)nc3ccccc3c2n1CCCCNS(C)(=O)=O [IRM 4, N-{4-[4-amino-2-(2-methoxyethyl)-1H-imidazo[4,5-c]quinolin-1-yl]butyl}methanesulfonamide]
TNF Serum (TNF; [2]): 0 pg/mL | TNF Tissue (TNF; [2]): 109 pg/mL | MCP-1 Serum (MCP-1; [2]): 105 pg/mL | MCP-1 Tissue (MCP-1; [2]): 713 pg/mL

CCOCc1nc2c(N)nc3ccccc3c2n1CCOCCNC(=O)Nc1ccccc1 [IRM 8, N-(2-{2-[4-amino-2-(ethoxymethyl)-1H-imidazo[4,5-c]quinolin-1-yl]ethoxy}ethyl)-N′-phenylurea]
TNF Serum (TNF; [2]): 0 pg/mL | TNF Tissue (TNF; [2]): 294 pg/mL | MCP-1 Serum (MCP-1; [2]): 82 pg/mL | MCP-1 Tissue (MCP-1; [2]): 331 pg/mL

CCCCc1nc2c(N)nc3ccccc3c2n1CCS(=O)(=O)C(C)C [IRM 6, 2-butyl-1-{2-[(1-methylethyl)sulfonyl]ethyl}-1H-imidazo[4,5-c]quinolin-4-amine]
TNF Serum (TNF; [2]): 1 pg/mL | TNF Tissue (TNF; [2]): 491 pg/mL | MCP-1 Serum (MCP-1; [2]): 114 pg/mL | MCP-1 Tissue (MCP-1; [2]): 1840 pg/mL

Nc1nc2ccccc2c2c1ncn2CCOCc1ccncc1 [IRM 9, 1-[2-(pyridin-4-ylmethoxy)ethyl]-1H-imidazo[4,5-c]quinolin-4-amine]
TNF Serum (TNF; [1]): 30 pg/mL | TNF Serum (TNF; [3]): 4 pg/mL | TNF Serum (TNF; [4]): 8 pg/mL | TNF Tissue (TNF; [1]): 597 pg/mL | TNF Tissue (TNF; [3]): 697 pg/mL | TNF Tissue (TNF; [4]): 248 pg/mL | MCP-1 Serum (MCP-1; [1]): 85 pg/mL | MCP-1 Serum (MCP-1; [3]): 131 pg/mL | MCP-1 Serum (MCP-1; [4]): 180 pg/mL | MCP-1 Tissue (MCP-1; [1]): 328 pg/mL | MCP-1 Tissue (MCP-1; [3]): 1556 pg/mL | MCP-1 Tissue (MCP-1; [4]): 850 pg/mL

CCCCc1nc2c(N)nc3ccccc3c2n1CCCS(C)(=O)=O [IRM 10, 2-butyl-1-[3-(methylsulfonyl)propyl]-1H-imidazo[4,5-c]quinoline-4-amine]
TNF Serum (TNF; [1]): 16 pg/mL | TNF Serum (TNF; [3]): 25 pg/mL | TNF Serum (TNF; [4]): 10 pg/mL | TNF Tissue (TNF; [1]): 1110 pg/mL | TNF Tissue (TNF; [3]): 887 pg/mL | TNF Tissue (TNF; [4]): 519 pg/mL | MCP-1 Serum (MCP-1; [1]): 111 pg/mL | MCP-1 Serum (MCP-1; [3]): 160 pg/mL | MCP-1 Serum (MCP-1; [4]): 155 pg/mL | MCP-1 Tissue (MCP-1; [1]): 739 pg/mL | MCP-1 Tissue (MCP-1; [3]): 1440 pg/mL | MCP-1 Tissue (MCP-1; [4]): 975 pg/mL

Cc1nc2c(N)nc3ccccc3c2n1CC(C)(C)O [IRM 2, 4-amino-α,α,2-trimethyl-1H-imidazo[4,5-c]quinoline-1-ethanol]
TNF Serum (TNF; [2]): 4 pg/mL | TNF Serum (TNF; [5]): 0 pg/mL | TNF Serum (TNF; [6]): 0 pg/mL | TNF Serum (TNF; [7]): 0 pg/mL | TNF Serum (TNF; [8]): 0 pg/mL | TNF Serum (TNF; [9]): 0 pg/mL | TNF Serum (TNF; [10]): 0 pg/mL | TNF Tissue (TNF; [2]): 384 pg/mL | TNF Tissue (TNF; [5]): 493 pg/mL | TNF Tissue (TNF; [6]): 390 pg/mL | TNF Tissue (TNF; [7]): 537 pg/mL | TNF Tissue (TNF; [8]): 716 pg/mL | TNF Tissue (TNF; [9]): 888 pg/mL | TNF Tissue (TNF; [10]): 1075 pg/mL | MCP-1 Serum (MCP-1; [2]): 114 pg/mL | MCP-1 Serum (MCP-1; [5]): 68 pg/mL | MCP-1 Serum (MCP-1; [6]): 83 pg/mL | MCP-1 Serum (MCP-1; [7]): 118 pg/mL | MCP-1 Serum (MCP-1; [8]): 92 pg/mL | MCP-1 Serum (MCP-1; [9]): 59 pg/mL | MCP-1 Serum (MCP-1; [10]): 87 pg/mL | MCP-1 Tissue (MCP-1; [2]): 1016 pg/mL | MCP-1 Tissue (MCP-1; [5]): 433 pg/mL | MCP-1 Tissue (MCP-1; [6]): 454 pg/mL | MCP-1 Tissue (MCP-1; [7]): 889 pg/mL | MCP-1 Tissue (MCP-1; [8]): 2462 pg/mL | MCP-1 Tissue (MCP-1; [9]): 1390 pg/mL | MCP-1 Tissue (MCP-1; [10]): 2353 pg/mL | Lesion incidence: Cervix, Cavitation (epithelium) (rats; [11]): 0/3 | Lesion incidence: Cervix, Inflammation (rats; [11]): 1/3 | Lesion incidence: Perineal skin, Exudate on surface, epidermis (rats; [11]): 0/3 | Lesion incidence: Perineal skin, Inflammation, superficial dermis (rats; [11]): 1/3 | Lesion incidence: Perineal skin, Spongiosis, epidermis (rats; [11]): 1/3 | Lesion incidence: Perineal skin, Subcorneal pustules, epidermis (rats; [11]): 1/3 | Lesion incidence: Vagina, Edema, lamina propria (rats; [11]): 0/3 | Lesion incidence: Vagina, Inflammation, lamina propria (rats; [11]): 3/3 | Lesion incidence: Vulva, Edema, lamina propria (rats; [11]): 1/3 | Lesion incidence: Vulva, Erosion (rats; [11]): 0/3 | Lesion incidence: Vulva, Inflammation, lamina propria (rats; [11]): 3/3 | Lesion incidence: Vulva, Intraepithelial pustules (rats; [11]): 0/3 | Lesion incidence: Vulva, Necrosis, epithelium (rats; [11]): 1/3 | Lesion incidence: Vulva, Spongiosis, epithelium (rats; [11]): 1/3 | Lesion incidence: Vulva, Ulceration (rats; [11]): 0/3 | Lesion incidence: Cervix, Cavitation (epithelium) (rats; Single dose): 0/3 | Lesion incidence: Cervix, Inflammation (rats; Single dose): 0/3 | Lesion incidence: Perineal skin, Exudate on surface, epidermis (rats; Single dose): 0/3 | Lesion incidence: Perineal skin, Inflammation, superficial dermis (rats; Single dose): 1/3 | Lesion incidence: Perineal skin, Spongiosis, epidermis (rats; Single dose): 0/3 | Lesion incidence: Perineal skin, Subcorneal pustules, epidermis (rats; Single dose): 0/3 | Lesion incidence: Vagina, Edema, lamina propria (rats; Single dose): 0/3 | Lesion incidence: Vagina, Inflammation, lamina propria (rats; Single dose): 3/3 | Lesion incidence: Vulva, Edema, lamina propria (rats; Single dose): 0/3 | Lesion incidence: Vulva, Erosion (rats; Single dose): 0/3 | Lesion incidence: Vulva, Inflammation, lamina propria (rats; Single dose): 3/3 | Lesion incidence: Vulva, Intraepithelial pustules (rats; Single dose): 1/3 | Lesion incidence: Vulva, Necrosis, epithelium (rats; Single dose): 1/3 | Lesion incidence: Vulva, Spongiosis, epithelium (rats; Single dose): 0/3 | Lesion incidence: Vulva, Ulceration (rats; Single dose): 0/3

CCCCNC(=O)NCCCn1c(CCCC)nc2c(N)nc3ccccc3c21 [IRM 5]
TNF Serum (TNF; [2]): 1 pg/mL | TNF Tissue (TNF; [2]): 358 pg/mL | MCP-1 Serum (MCP-1; [2]): 108 pg/mL | MCP-1 Tissue (MCP-1; [2]): 958 pg/mL
